# Assay results published in article PMC7336998, “Discovery of secondary sulphonamides as IDO1 inhibitors with potent antitumour effects in vivo” (Journal of Enzyme Inhibition and Medicinal Chemistry, 2020).
# Entries after “also recorded” stand apart in the source; their conditions may differ.
# How the values were obtained:
# [1] = system: CT26 colon carcinoma; experiment: CT26 colon carcinoma xenograft in immunodeficient BALB/c nude mice; format: in vivo, mouse
# Description: Eight-week-old male BALB/c nude mice, weighing 18–22 g, were supplied by Model Animal Research Centre of Nanjing University (Nanjing, China). 1 × 10^7/ml and 1 × 10^6 CT26 cells (in 0.1 ml PBS) were injected subcutaneously into the right flanks of mice. After CT26 xenograft BALB/c nude mouse model was established, all mice were randomly divided into three groups (n = 8). 5d (12.5 mg/kg) were administered (i.g) every day and 5-FU (25 mg/kg) awere administered (i.p) every three days. The following experimental procedures were similar to the described above.
# For immunohistochemistry staining, the sections were deparaffinized, rehydrated, and washed in 1% PBS-Tween 20, and then treated with 2% hydrogen peroxide, blocked with 3% goat serum (Life Technology, 16210–064) and incubated for 2 h at room temperature with specific primary antibodies. Then the slides were incubated with streptavidin-HRP (Shanghai Gene Company, GK500705) for 40 min, then stained with DAB (Shanghai Gene Company, GK500705) substrate and counter-stained with haematoxylin. Images were acquired by microscopy (Olympus IX51).
# Then, in order to clarify whether the in vivo antitumour efficacy of compound 5d was related to the mouse immune system, we repeated the above experiment in immunodeficient nude mice. Briefly, BALB/c nude mice bearing established CT26 colon carcinoma xenograft were treated with compound 5d and 5-FU for 10 days.
# Figure 8. […] 1 × 10^6 CT26 cells were transplanted subcutaneously into the armpit of immunodeficient BALB/c nude mice. Three days after transplantation, mice were randomly allocated to vehicle control or treatment groups (n = 8). Drugs were administered on days 1–9. (A) Tumour volume and mouse body weight (B) were recorded. After sacrifice, solid tumours were separated and weighed (C, D). Data represent mean ± SEM, n = 8, *p < 0.05, **p < 0.01 vs vehicle.
# To verify the above conclusions, we further performed H&E and IHC staining on the nude mouse CT26 tumour tissues. […] These findings further supported the above conclusions.
# [2] = target: T1, IDO1 protein in HeLa cells (Homo sapiens, UniProt P14902); experiment: Cellular thermal shift assay (CETSA); format: binding; details: IFN-γ 100 ng/mL 24 h, compound 2 h, 43-70 °C, Western blot
# T1 construct: a human cervical cancer cell line HeLa that endogenously expresses IDO1 upon IFN-γ treatment; endogenous in cells; host or cells: HeLa cells treated with human IFN-γ
# T1 sequence (P14902 whole entry): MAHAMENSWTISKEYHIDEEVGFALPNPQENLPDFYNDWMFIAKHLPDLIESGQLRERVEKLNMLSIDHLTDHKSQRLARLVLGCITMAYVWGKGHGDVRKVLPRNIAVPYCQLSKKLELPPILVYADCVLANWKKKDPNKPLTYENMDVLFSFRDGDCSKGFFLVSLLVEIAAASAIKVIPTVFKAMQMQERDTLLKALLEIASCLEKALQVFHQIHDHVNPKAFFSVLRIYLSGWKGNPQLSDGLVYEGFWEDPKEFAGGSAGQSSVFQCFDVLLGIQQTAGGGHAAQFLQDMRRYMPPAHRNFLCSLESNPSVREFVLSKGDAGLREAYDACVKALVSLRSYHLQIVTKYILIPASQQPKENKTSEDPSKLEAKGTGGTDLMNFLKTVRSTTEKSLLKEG
# Description: HeLa cells were seeded in 6-well culture plates at a density of 2 × 10^5 per well. On the next day, human IFN-γ (100 ng/mL) were added and incubated for 24 h, and then the cells were treated with 5d for 2 h. At the end of incubation, cells collected and subjected to CETSA assay. Briefly, incubated cells were equally divided into 10 parts, each part was heated for 3 min under different temperature (43, 46, 49, 52, 55, 58, 61, 64, 67, and 70 °C), and then the heated cells were kept at −80 °C for 12 h, then at room temperature for 5 min, and the process repeated one more time. After that, cell lysates were extracted by centrifugation at 20,000 × g, 20 min. Levels of IDO1 protein were assessed by Western blot analysis.
# The cellular thermal shift assay (CETSA) is usually used to identify compounds and their potential targets. CESTA can detect the target engagement of drugs in a cellular context based on the biophysical principle of ligand-induced thermal stabilisation of target proteins. To this end, we further employed the CETSA assay to detect whether compound 5d could directly bind to the target protein IDO1 in HeLa cells.
# Figure 6. Compound 5d could bind to IDO1 protein in HeLa cells. HeLa cells were treated with human IFN-γ (100 ng/mL) for 24 h, and then treated with 5d for 2 h. […] The levels of IDO1 protein were assessed by Western blot analysis.
# [3] = system: HeLa cells; experiment: HeLa cell viability by MTT at the end of the IDO1/kynurenine assay; format: cell-based, human; details: under the experimental conditions of the IDO1 assay
# Text: It is well known that IDO1 is broadly expressed in human cancers and is induced by pro-inflammatory cytokines, such as interferon gamma (IFN-γ) and tumour necrosis factor alpha (TNF-α)[41]. Here we utilised a human cervical cancer cell line HeLa that endogenously expresses IDO1 upon IFN-γ treatment to evaluate the IDO1 inhibitory activity of the synthesised compounds by measuring kynurenine secreted into the media. This cell-based assay, as a rapid and simple method for determination IDO1/kynurenine, is closely related to the potency of the enzyme assay and has been widely used to identify various IDO1 inhibitors[19]^,[23]^,[29]^,[42]. In addition, cytotoxic compounds can reduce cell viability, which will decrease the IDO1 levels and then lower the conversion of tryptophan to kynurenine. Thus, we also employed this cellular assay to detect false positive IDO1 inhibitors and cytotoxic compounds by measuring HeLa cell viability. Clinical candidate navoximod was used as an assay control.
# Furthermore, the viability of HeLa cells was evaluated by the MTT method at the end of the assay.
# [4] = system: naïve CD4+ T cells co-cultured with B16F1 melanoma cells; experiment: T cell proliferation in B16F1-T cell co-culture (MTT); format: cell-based, mouse; details: 18 μM
# Description: (§1) The main bioassays performed in the study, including HeLa cell-based IDO1/kynurenine assay, Western blot analysis, T cell proliferation and Treg cell differentiation experiments, were carried out as described previously.
# T lymphocytes are exceedingly sensitive to low tryptophan levels. Overactivation of the kynurenine pathway by high IDO1 expression leads to local tryptophan depletion, which can suppress T cell proliferation by activating the GCN2 kinase pathway and eventually result in T cell anergy. Here, to determine whether secondary sulphonamides could rescue IDO1-mediated blockade of T cell proliferation, we used a co-culture of IDO1-expressing B16F1 melanoma cells with naïve CD4^+ T cells to mimic the tumour microenvironment. Given that melanoma is a highly immunogenic tumour and IDO1 constitutively expresses in melanoma cells, B16F1 murine melanoma cell lines that express IDO1 were then used to co-culture with T cells. Naïve CD4^+ T cells were isolated from spleens of C57BL/6 mice.
# Figure 4. Compounds 5d and 8 g could promote the proliferation of T cells. Based on the B16F1-T cell co-culture system, use MTT assay to test T cells proliferation. The Navoximod and compounds were added to the system at the concentration of 1.5 and 18 μM. Data represent mean ± SEM (n = 3).
# [5] = system: IDO1 protein expression; experiment: Western blot of IDO1 protein expression in IFN-γ-treated HeLa cells; format: cell-based, human
# Description: as §1
# To exclude the possibility that these secondary sulphonamides inhibit IDO1 activity by down-regulating IDO1 expression, we utilised Western blot to measure the expression of IDO1 protein in HeLa cells treated with different compounds.
# Figure 3. […] (B) The greyscale scanning statistical results of A. (C) HeLa cells were incubated with compound 5d (3, 10, 30 μM) for 24 h. (D) The greyscale scanning statistical results of C. (E) HeLa cells were incubated with compound 5d (3, 10, 30 μM) for 48 h. (F) The greyscale scanning statistical results of E. Data are presented as means ± SEM (n = 3).
# [6] = nude mouse CT26 tumour tissue, 12.5 mg/kg i.g
structure (smiles),measurement,setting,value
"C=CC(=O)Nc1ccc(S(=O)(=O)NCc2cccc(Cl)c2)cc1 [5d, N-(4-(N-(3-Chlorobenzyl)sulfamoyl)phenyl)acrylamide]",tumour growth,"[1]; BALB/c nude mice, 12.5 mg/kg i.g every day, vs vehicle",did not block tumour growth
same,expression of PCNA,[1]; [6],had no influence on the expression of PCNA
same,tumour cell morphology (H&E staining),[1]; [6],remained intact morphology
same,thermal stability of IDO1 protein,[2],improve the thermal stability of IDO1 protein; also recorded: still maintained the protein stability at 55 °C
same,HeLa cell viability,[3],without affecting the cell viability
same,T cell proliferation,[4],significant augmentation on T cell activity; also recorded: better enhancement of T cell proliferation than navoximod
same,expression of IDO1 protein,"[5]; HeLa cells, 3, 10, 30 µM for 24 h or 48 h",did not affect IDO1 expression
same,expression of IDO1 protein,"[5]; HeLa cells, IFN-γ 100 ng/mL 24 h, then compounds at their IC50 concentrations for 24 h",did not influence IDO1 expression
